Results published in patent US20110092521A1, “Methods of Treating Diseases Using Inhibitors of Nucleoside Phosphorylases and Nucleosidases” (priority 2006, published 2011).
Entries after “also recorded” stand apart in the source; their conditions may differ.

Legend:
FaDu xenografts = assay: FaDu xenograft studies in NOD-SCID mice; assay type: in vivo, mouse
Procedure: NOD-SCID mice (6-8 weeks old) were obtained from Jackson Laboratory (Bar Harbor, Me.). FaDu cells (10^6) were inoculated into the dorsum of the hind foot. After 5 days, mice were treated with 9 mg/kg or 21 mg/kg body weight of compound (2) in drinking water or by daily i.p. injections of 5 mg/kg body weight of compound (2). After inoculation mice were assigned to treatment or control groups (n=5). Tumor volume (V) was determined from: V=(4/3)*(22/7)*1/8*(length*width*height). Differences between treatment cohorts were determined using the Student's t test Mice were weighed every 4-5 days, monitored for hair loss, loss of appetite, vomiting and diarrhoea. Total and differential blood and bone marrow analyses were performed after treatment with compound (2).

[1] = test system: TRAMP (transgenic adenocarcinoma of mouse prostate) mice; assay: Treatment of TRAMP mice (tumour mass, histology, MRI); assay type: in vivo; conditions: for prostate cancer progression in the TRAMP mouse model: administered either alone or in combination with MTA
Procedure: MRI experiments were performed using a 9.4 T 21 cm bore horizontal bore magnet (Magnex Scientific) Varian INOVA MRI system (Fremont, Calif.) equipped with a 28 mm inner diameter quadrature birdcage coil. Mice were anesthetized with isoflurane inhalation anesthesia (1-1.5% in 100% O2 administered via a nose cone) and positioned in the MRI coil. Body temperature was maintained (37-38° C.) using a homeothermic warming system. After acquiring scout images, multi-slice spin-echo imaging with an echo time of 18 ms and a repetition time of 400 ms ms was performed. A 40 mm field of view with a 256×256 matrix size was used. Nine to 15 slices along the transverse, sagittal, and coronal planes were acquired in each multi-slice experiment with a slice thickness of 1 mm and the gap between slices of 0.5 mm. MRI data were processed off-line with MATLAB-based MRI analysis software.
Long-Term: Sterile solutions of 100 μM compound (2) (pH ˜6.4). Water bottles were autoclaved prior to filling with sterile inhibitor solutions. Water consumption was monitored every other day, with fresh inhibitor solution being administered to prevent bacterial growth. Mice were control-sacrificed and tissues (genitourinary system, liver, lungs) were collected for histology and polyamine analysis. Mass and dimensions of excised genitourinary system tumours were recorded. Sections of small intestine were also removed for toxicity analysis via H&E staining.

differences in animal weight or in total and differential blood counts between treatment and control groups (FaDu xenografts; NOD-SCID mice with FaDu tumors, after 28 days of therapy) | SMILES | regrowth of tumor after removal of treatment (FaDu xenografts; 28 days without treatment after 28 day therapy, mice receiving the two highest doses) | growth of established FaDu xenografts (tumor growth) (FaDu xenografts; NOD-SCID mice, 9 or 21 mg/kg in drinking water or 5 mg/kg daily i.p., from day 5, versus controls) | tumour growth and metastasis in TRAMP mice ([1]; 100 μM via drinking water, approximately 6-8 months) | prostate cancer progression in the TRAMP mouse model [1]
No significant differences | CSC[C@H]1CN(Cc2c[nH]c3c(N)ncnc23)C[C@@H]1O [compound (2), (3R,4S)-1-[(9-deazaadenin-9-yl)methyl]-3-hydroxy-4-(methylthiomethyl)pyrrolidine] | no regrowth of tumor | significantly slower than in controls; also recorded: significantly delays the growth | reduces tumour growth and metastasis | inhibited
 | CSC[C@H]1N[C@@H](c2c[nH]c3c(N)ncnc23)C(O)C1O (stereo partly drawn) [compound (3)] |  |  |  | inhibits prostate cancer progression
